Test results from ChEMBL document CHEMBL3045469, “Design, synthesis and preliminary evaluation of some novel [1,4]diazepino [5,6-b]pyrrolizine and 6-(2-oxopyrrolidino)-1H-pyrrolizine derivatives as anticonvulsant agents” (Med Chem Res, 2011).

Tests used:
[1] = tested on: Mus musculus; assay: Anticonvulsant activity in Mus musculus Swiss albino (mouse) assessed as protection against pentylenetetrazole-induced seizures at 100 mg/kg, ip administered 1 hr prior to pentylenetetrazole-challenge measured up to 1 hr relative to control; assay type: functional; conditions: route intraperitoneal
[2] = tested on: Mus musculus; assay: Anticonvulsant activity in Mus musculus Swiss albino (mouse) assessed as protection against pentylenetetrazole-induced seizures at 75 mg/kg, ip administered 1 hr prior to pentylenetetrazole-challenge measured up to 1 hr relative to control; assay type: functional; conditions: route intraperitoneal
[3] = tested on: Mus musculus; assay: Anticonvulsant activity in Mus musculus Swiss albino (mouse) assessed as protection against pentylenetetrazole-induced seizures at 50 mg/kg, ip administered 1 hr prior to pentylenetetrazole-challenge measured up to 1 hr relative to control; assay type: functional; conditions: route intraperitoneal
[4] = tested on: Mus musculus; assay: Anticonvulsant activity in ip dosed Mus musculus Swiss albino (mouse) assessed as protection against pentylenetetrazole-induced seizures administered 1 hr prior to pentylenetetrazole-challenge measured up to 1 hr relative to phenobarbital; assay type: functional
[5] = tested on: Mus musculus; assay: Anticonvulsant activity in ip dosed Mus musculus Swiss albino (mouse) assessed as protection against pentylenetetrazole-induced seizures administered 1 hr prior to pentylenetetrazole-challenge measured up to 1 hr; assay type: functional; conditions: read-out: PD50
[6] = tested on: Mus musculus; assay: Anticonvulsant activity in Mus musculus Swiss albino (mouse) assessed as protection against pentylenetetrazole-induced seizures at 10 mg/kg, ip administered 1 hr prior to pentylenetetrazole-challenge measured up to 1 hr relative to control; assay type: functional; conditions: route intraperitoneal
[7] = tested on: Mus musculus; assay: Toxicity in Mus musculus albino (mouse) assessed as mortality at 160 to 400 mg/kg, ip after 24 hr; assay type: organism-based; set-up: dose 160-400 mg/kg, route intraperitoneal; conditions: in vivo
[8] = tested on: Mus musculus; assay: Toxicity in Mus musculus albino (mouse) assessed as mortality at 100 mg/kg, ip after 24 hr; assay type: organism-based; set-up: dose 100 mg/kg, route intraperitoneal; conditions: in vivo
[9] = Toxicity in ip dosed Mus musculus albino (mouse) after 24 hr; assay type: organism-based; conditions: in vivo
[10] = tested on: Mus musculus; assay: Anticonvulsant activity in Mus musculus Swiss albino (mouse) assessed as protection against pentylenetetrazole-induced seizures at 30 mg/kg, ip administered 1 hr prior to pentylenetetrazole-challenge measured up to 1 hr relative to control; assay type: functional; conditions: route intraperitoneal
[11] = tested on: Mus musculus; assay: Anticonvulsant activity in Mus musculus Swiss albino (mouse) assessed as protection against pentylenetetrazole-induced seizures at 20 mg/kg, ip administered 1 hr prior to pentylenetetrazole-challenge measured up to 1 hr relative to control; assay type: functional; conditions: route intraperitoneal
[12] = tested on: Mus musculus; assay: Toxicity in Mus musculus albino (mouse) assessed as mortality at 600 to 2400 mg/kg, ip after 24 hr; assay type: organism-based; set-up: dose 600-2400 mg/kg, route intraperitoneal; conditions: in vivo
[13] = tested on: Mus musculus; assay: Toxicity in Mus musculus albino (mouse) assessed as mortality at 300 mg/kg, ip after 24 hr; assay type: organism-based; set-up: dose 300 mg/kg, route intraperitoneal; conditions: in vivo

| SMILES | Activity [1] [%] | Activity [2] [%] | Activity [3] [%] | Activity [4] [%] | ED50 [5] [mg/kg] | Activity [6] [%] | Activity [7] | Activity [8] | LD50 at 24 h [9] [mg/kg] | Activity [10] [%] | Activity [11] [%] | Activity [12] | Activity [13] |
| --- | --- | --- | --- | --- | --- | --- | --- | --- | --- | --- | --- | --- | --- |
| N#Cc1c(NC(=O)CCl)c(C(=O)Nc2ccc(Cl)cc2)n2c1CCC2 | 60 | 40 | 0 | 24.1 | 88.9 | – | – | – | – | – | – | – | – |
| CCC1(c2ccccc2)C(=O)NC(=O)NC1=O [PHENOBARBITAL] | – | – | – | – | 14.4 | 40 | Toxic | Non-toxic | 251 | 100 | 60 | – | – |
| Cc1ccc(NC(=O)c2c(NC(=O)CCCCl)c(C#N)c3n2CCC3)cc1 | 40 | 20 | 0 | 19.4 | 112 | – | – | – | – | – | – | – | – |
| Cc1ccc(N2CC(=O)Nc3c(C#N)c4n(c3C2=O)CCC4)cc1 | 20 | 20 | 0 | 10.9 | 167 | – | – | – | – | – | – | – | – |
| CN1C(=O)CN(c2ccccc2)C(=O)c2c1c(C#N)c1n2CCC1 | 40 | 20 | 0 | 16.2 | 112 | – | – | – | – | – | – | – | – |
| N#Cc1c(NC(=O)CCCCl)c(C(=O)Nc2ccc(Cl)cc2)n2c1CCC2 | 40 | 40 | 20 | 19.7 | 117 | – | – | – | – | – | – | – | – |
| N#Cc1c(N2CCCC2=O)c(C(=O)Nc2ccc(Cl)cc2)n2c1CCC2 | 0 | 20 | 40 | 55.8 | 37.5 | – | – | – | – | – | – | – | – |
| Cc1ccc(NC(=O)c2c(NC(=O)CCl)c(C#N)c3n2CCC3)cc1 | 40 | 40 | 20 | 17.4 | 117 | – | – | – | – | – | – | – | – |
| Cc1ccc(N2CC(=O)N(C)c3c(C#N)c4n(c3C2=O)CCC4)cc1 | 20 | 20 | 0 | 11.4 | 167 | – | – | – | – | – | – | – | – |
| N#Cc1c(N2CCCC2=O)c(C(=O)Nc2ccccc2)n2c1CCC2 | 0 | 20 | 60 | 34.2 | 55.6 | – | – | – | – | – | – | – | – |
| N#Cc1c2c(n3c1CCC3)C(=O)N(c1ccccc1)CC(=O)N2 | 40 | 40 | 20 | 14.9 | 117 | – | – | – | – | – | – | – | – |
| CN1C(=O)CN(c2ccc(Cl)cc2)C(=O)c2c1c(C#N)c1n2CCC1 | 40 | 20 | 20 | 15.1 | 133 | – | – | – | – | – | – | – | – |
| N#Cc1c2c(n3c1CCC3)C(=O)N(c1ccc(Cl)cc1)CC(=O)N2 | 20 | 0 | 0 | 10.6 | 183 | – | – | – | – | – | – | – | – |
| Cc1ccc(NC(=O)c2c(N3CCCC3=O)c(C#N)c3n2CCC3)cc1 | 0 | 0 | 40 | 67.9 | 29.2 | – | – | – | 1010 | – | – | Toxic | Non-toxic |
| N#Cc1c(NC(=O)CCCCl)c(C(=O)Nc2ccccc2)n2c1CCC2 | 60 | 40 | 0 | 23.7 | 88.9 | – | – | – | – | – | – | – | – |
| N#Cc1c(NC(=O)CCl)c(C(=O)Nc2ccccc2)n2c1CCC2 | 40 | 20 | 0 | 17.3 | 112 | – | – | – | – | – | – | – | – |
